pKd: −log10 of the molar value.
Each compound was assayed against WDR5 (Homo sapiens (Human), UniProt P61964) (assay: Surface Plasmon Resonance (SPR) assay, KD and residence time). Details: surface plasmon resonance (SPR) assay; read-out: WDR5 binding affinity (KD).
Assay type: binding

Point of comparison: `C[C@@H]1CN(c2cc(F)c(C3=CCCN(C(=O)N4CCCC4)C3)cc2NC(=O)c2c[nH]c(=O)cc2C(F)(F)F)C[C@H](C)N1C` [Example 374, N-[4-fluoro-5-[1-(pyrrolidine-1-carbonyl)-3,6-dihydro-2H-pyridin-5-yl]-2-[(3R,5S)-3,4,5-trimethylpiperazin-1-yl]phenyl]-6-oxo-4-(trifluoromethyl)-1H-pyridine-3-carboxamide], pKd 8.94. Against it:
- COc1cc(N2CCC=C(c3cc(NC(=O)c4c[nH]c(=O)cc4C(F)(F)F)c(N4C[C@@H](C)N(C)[C@@H](C)C4)cc3F)C2)ncn1 [Example 365, N-[4-fluoro-5-[1-(6-methoxypyrimidin-4-yl)-3,6-dihydro-2H-pyridin-5-yl]-2-[(3R,5S)-3,4,5-trimethylpiperazin-1-yl]phenyl]-6-oxo-4-(trifluoromethyl)-1H-pyridine-3-carboxamide] — 0.67 log units higher, 9.61
- COc1cnc(N2CC=C(c3cc(NC(=O)c4c[nH]c(=O)cc4C(F)(F)F)c(N4C[C@@H](C)N(C)[C@@H](C)C4)cc3F)CC2)nc1 [Example 366, N-[4-fluoro-5-[1-(5-methoxypyrimidin-2-yl)-3,6-dihydro-2H-pyridin-4-yl]-2-[(3R,5S)-3,4,5-trimethylpiperazin-1-yl]phenyl]-6-oxo-4-(trifluoromethyl)-1H-pyridine-3-carboxamide] — within 0.2 log units, 8.75
- C[C@@H]1CN(c2cc(F)c(C3=CCN(c4ncc(F)cn4)CC3)cc2NC(=O)c2c[nH]c(=O)cc2C(F)(F)F)C[C@H](C)N1C [Example 367, N-[4-fluoro-5-[1-(5-fluoropyrimidin-2-yl)-3,6-dihydro-2H-pyridin-4-yl]-2-[(3R,5S)-3,4,5-trimethylpiperazin-1-yl]phenyl]-6-oxo-4-(trifluoromethyl)-1H-pyridine-3-carboxamide] — within 0.2 log units, 8.98
- Cc1cc(C)nc(N2CC=C(c3cc(NC(=O)c4c[nH]c(=O)cc4C(F)(F)F)c(N4C[C@@H](C)N(C)[C@@H](C)C4)cc3F)CC2)n1 [Example 368, N-[5-[1-(4,6-dimethylpyrimidin-2-yl)-3,6-dihydro-2H-pyridin-4-yl]-4-fluoro-2-[(3R,5S)-3,4,5-trimethylpiperazin-1-yl]phenyl]-6-oxo-4-(trifluoromethyl)-1H-pyridine-3-carboxamide] — 0.30 log units lower, 8.64
- C[C@@H]1CN(c2cc(F)c(C3=CCN(c4ncc(C=O)cn4)CC3)cc2NC(=O)c2c[nH]c(=O)cc2C(F)(F)F)C[C@H](C)N1C [Example 369, N-[4-fluoro-5-[1-(5-formylpyrimidin-2-yl)-3,6-dihydro-2H-pyridin-4-yl]-2-[(3R,5S)-3,4,5-trimethylpiperazin-1-yl]phenyl]-6-oxo-4-(trifluoromethyl)-1H-pyridine-3-carboxamide] — 0.22 log units higher, 9.16
- C[C@@H]1CN(c2cc(F)c(-c3cnc(N(C)C4CCOCC4)nc3)cc2NC(=O)c2c[nH]c(=O)cc2C(F)(F)F)C[C@H](C)N1C [Example 371, N-[4-fluoro-5-[2-[methyl(oxan-4-yl)amino]pyrimidin-5-yl]-2-[(3R,5S)-3,4,5-trimethylpiperazin-1-yl]phenyl]-6-oxo-4-(trifluoromethyl)-1H-pyridine-3-carboxamide] — 0.29 log units higher, 9.23
- C[C@@H]1CN(c2cc(F)c(C3=CCCN(C(=O)N(C)C)C3)cc2NC(=O)c2c[nH]c(=O)cc2C(F)(F)F)C[C@H](C)N1C [Example 372, N-[5-[1-(dimethylcarbamoyl)-3,6-dihydro-2H-pyridin-5-yl]-4-fluoro-2-[(3R,5S)-3,4,5-trimethylpiperazin-1-yl]phenyl]-6-oxo-4-(trifluoromethyl)-1H-pyridine-3-carboxamide] — within 0.2 log units, 8.76
- COc1cnc(N2CCC=C(c3cc(NC(=O)c4c[nH]c(=O)cc4C(F)(F)F)c(N4C[C@@H](C)N(C)[C@@H](C)C4)cc3F)C2)nc1 [Example 375, N-[4-fluoro-5-[1-(5-methoxypyrimidin-2-yl)-3,6-dihydro-2H-pyridin-5-yl]-2-[(3R,5S)-3,4,5-trimethylpiperazin-1-yl]phenyl]-6-oxo-4-(trifluoromethyl)-1H-pyridine-3-carboxamide] — 0.22 log units higher, 9.16
- Cc1cnc(N2CCC=C(c3cc(NC(=O)c4c[nH]c(=O)cc4C(F)(F)F)c(N4C[C@@H](C)N(C)[C@@H](C)C4)cc3F)C2)nc1 [Example 376, N-[4-fluoro-5-[1-(5-methylpyrimidin-2-yl)-3,6-dihydro-2H-pyridin-5-yl]-2-[(3R,5S)-3,4,5-trimethylpiperazin-1-yl]phenyl]-6-oxo-4-(trifluoromethyl)-1H-pyridine-3-carboxamide] — 0.23 log units higher, 9.17
- C[C@@H]1CN(c2cc(F)c(C3=CCCN(c4ncc(F)cn4)C3)cc2NC(=O)c2c[nH]c(=O)cc2C(F)(F)F)C[C@H](C)N1C [Example 377, N-[4-fluoro-5-[1-(5-fluoropyrimidin-2-yl)-3,6-dihydro-2H-pyridin-5-yl]-2-[(3R,5S)-3,4,5-trimethylpiperazin-1-yl]phenyl]-6-oxo-4-(trifluoromethyl)-1H-pyridine-3-carboxamide] — within 0.2 log units, 8.89
- C[C@@H]1CN(c2cc(F)c(-c3cnc(N4CCN(C)CC4)nc3)cc2NC(=O)c2ccc(F)cc2C(F)(F)F)C[C@H](C)N1C [Example 379, 4-fluoro-N-[4-fluoro-5-[2-(4-methylpiperazin-1-yl)pyrimidin-5-yl]-2-[(3R,5S)-3,4,5-trimethylpiperazin-1-yl]phenyl]-2-(trifluoromethyl)benzamide] — within 0.2 log units, 9.03
- C[C@@H]1CN(c2cc(F)c(-c3cnc(N(C)C)nc3)cc2NC(=O)c2ccc(F)cc2C(F)(F)F)C[C@H](C)N1C [Example 380, N-[5-[2-(dimethylamino)pyrimidin-5-yl]-4-fluoro-2-[(3R,5S)-3,4,5-trimethylpiperazin-1-yl]phenyl]-4-fluoro-2-(trifluoromethyl)benzamide] — within 0.2 log units, 8.77
- C[C@@H]1CN(c2ncc(-c3cc(NC(=O)c4ccc(F)cc4C(F)(F)F)c(N4C[C@@H](C)N(C)[C@@H](C)C4)cc3F)cn2)C[C@H](C)N1C [Example 381, 4-fluoro-N-[4-fluoro-2-[(3R,5S)-3,4,5-trimethylpiperazin-1-yl]-5-[2-[(3R,5S)-3,4,5-trimethylpiperazin-1-yl]pyrimidin-5-yl]phenyl]-2-(trifluoromethyl)benzamide] — 0.57 log units higher, 9.51
- C[C@@H]1CN(c2cc(F)c(-c3ccc(N4CCOCC4)nn3)cc2NC(=O)c2c[nH]c(=O)cc2C(F)(F)F)C[C@H](C)N1C [Example 384, N-[4-fluoro-5-(6-morpholin-4-ylpyridazin-3-yl)-2-[(3R,5S)-3,4,5-trimethylpiperazin-1-yl]phenyl]-6-oxo-4-(trifluoromethyl)-1H-pyridine-3-carboxamide] — within 0.2 log units, 8.82
- C[C@@H]1CN(c2ncc(-c3cc(NC(=O)c4c[nH]c(=O)cc4C(F)F)c(N4C[C@@H](C)N(C)[C@@H](C)C4)cc3F)cn2)C[C@H](C)O1 [Example 385, 4-(difluoromethyl)-N-[4-fluoro-5-[2-[(2R,6S)-2,6-dimethylmorpholin-4-yl]pyrimidin-5-yl]-2-[(3S,5R)-3,4,5-trimethylpiperazin-1-yl]phenyl]-6-oxo-1H-pyridine-3-carboxamide] — 0.20 log units higher, 9.14
- C[C@@H]1CN(c2ncc(-c3cc(NC(=O)c4c[nH]c(=O)cc4C(F)F)c(N4C[C@@H](C)N(C)[C@@H](C)C4)cc3F)cn2)CCO1 [Example 386, 4-(difluoromethyl)-N-[4-fluoro-5-[2-[(2R)-2-methylmorpholin-4-yl]pyrimidin-5-yl]-2-[(3R,5S)-3,4,5-trimethylpiperazin-1-yl]phenyl]-6-oxo-1H-pyridine-3-carboxamide] — within 0.2 log units, 8.83
- C[C@@H]1CN(c2ncc(-c3cc(NC(=O)c4c[nH]c(=O)cc4C(F)(F)F)c(N4C[C@@H](C)N(C)[C@@H](C)C4)cc3F)cn2)CCO1 [Example 388, N-[4-fluoro-5-[2-[(2R)-2-methylmorpholin-4-yl]pyrimidin-5-yl]-2-[(3R,5S)-3,4,5-trimethylpiperazin-1-yl]phenyl]-6-oxo-4-(trifluoromethyl)-1H-pyridine-3-carboxamide] — within 0.2 log units, 9.10
- C[C@@H]1CN(c2cc(F)c(C3=CCCN(c4ncccn4)C3)cc2NC(=O)c2cn(C)c(=O)cc2C(F)(F)F)C[C@H](C)N1C [Example 391, N-[4-fluoro-5-(1-pyrimidin-2-yl-3,6-dihydro-2H-pyridin-5-yl)-2-[(3R,5S)-3,4,5-trimethylpiperazin-1-yl]phenyl]-1-methyl-6-oxo-4-(trifluoromethyl)pyridine-3-carboxamide] — 0.57 log units lower, 8.37
- C[C@@H]1CN(c2cc(F)c(N3CCN(Cc4ccc(F)cc4)CC3)cc2NC(=O)c2c[nH]c(=O)cc2C(F)(F)F)C[C@H](C)N1C [Example 392, N-[4-fluoro-5-[4-[(4-fluorophenyl)methyl]piperazin-1-yl]-2-[(3R,5S)-3,4,5-trimethylpiperazin-1-yl]phenyl]-6-oxo-4-(trifluoromethyl)-1H-pyridine-3-carboxamide] — 0.85 log units lower, 8.09
- C[C@@H]1CN(c2cc(F)c(N3CCN(c4ncccn4)CC3)cc2NC(=O)c2c[nH]c(=O)cc2C(F)(F)F)C[C@H](C)N1C [Example 393, N-[4-fluoro-5-(4-pyrimidin-2-ylpiperazin-1-yl)-2-[(3R,5S)-3,4,5-trimethylpiperazin-1-yl]phenyl]-6-oxo-4-(trifluoromethyl)-1H-pyridine-3-carboxamide] — 1.06 log units lower, 7.88
- C[C@@H]1CN(c2cc(F)c(C3=CCN(c4ncc(CO)cn4)CC3)cc2NC(=O)c2c[nH]c(=O)cc2C(F)(F)F)C[C@H](C)N1C [Example 394, N-[4-fluoro-5-[1-[5-(hydroxymethyl)pyrimidin-2-yl]-3,6-dihydro-2H-pyridin-4-yl]-2-[(3R,5S)-3,4,5-trimethylpiperazin-1-yl]phenyl]-6-oxo-4-(trifluoromethyl)-1H-pyridine-3-carboxamide] — within 0.2 log units, 9.11
- C[C@@H]1CN(c2ncc(-c3cc(NC(=O)c4c[nH]c(=O)cc4C(F)F)c(N4CCN(C)[C@@H](C)C4)cc3F)cn2)CCO1 [Example 396, 4-(difluoromethyl)-N-[4-fluoro-2-[(3S)-3,4-dimethylpiperazin-1-yl]-5-[2-[(2R)-2-methylmorpholin-4-yl]pyrimidin-5-yl]phenyl]-6-oxo-1H-pyridine-3-carboxamide] — 0.31 log units higher, 9.25

— US11319299B2, “Substituted carboxamides as inhibitors of WDR5 protein-protein binding” (PROPELLON THERAPEUTICS INC., priority 2016, dated 2022)
